Each molecule was assayed against T1, Androgen receptor (AR) (Homo sapiens, UniProt P10275, T878A) (assay: Assessment of AR proteolytic activity (Western blotting of LNCap cell lysates)). Conditions: 24 hours of treatment, Western blotting quantified with Image J.
T1 construct: 5.5×10^5 LNCap cells were injected into each well of a 6-well plate; endogenous in cells; host or cells: LNCaP
T1 sequence (P10275 1-920 T878A): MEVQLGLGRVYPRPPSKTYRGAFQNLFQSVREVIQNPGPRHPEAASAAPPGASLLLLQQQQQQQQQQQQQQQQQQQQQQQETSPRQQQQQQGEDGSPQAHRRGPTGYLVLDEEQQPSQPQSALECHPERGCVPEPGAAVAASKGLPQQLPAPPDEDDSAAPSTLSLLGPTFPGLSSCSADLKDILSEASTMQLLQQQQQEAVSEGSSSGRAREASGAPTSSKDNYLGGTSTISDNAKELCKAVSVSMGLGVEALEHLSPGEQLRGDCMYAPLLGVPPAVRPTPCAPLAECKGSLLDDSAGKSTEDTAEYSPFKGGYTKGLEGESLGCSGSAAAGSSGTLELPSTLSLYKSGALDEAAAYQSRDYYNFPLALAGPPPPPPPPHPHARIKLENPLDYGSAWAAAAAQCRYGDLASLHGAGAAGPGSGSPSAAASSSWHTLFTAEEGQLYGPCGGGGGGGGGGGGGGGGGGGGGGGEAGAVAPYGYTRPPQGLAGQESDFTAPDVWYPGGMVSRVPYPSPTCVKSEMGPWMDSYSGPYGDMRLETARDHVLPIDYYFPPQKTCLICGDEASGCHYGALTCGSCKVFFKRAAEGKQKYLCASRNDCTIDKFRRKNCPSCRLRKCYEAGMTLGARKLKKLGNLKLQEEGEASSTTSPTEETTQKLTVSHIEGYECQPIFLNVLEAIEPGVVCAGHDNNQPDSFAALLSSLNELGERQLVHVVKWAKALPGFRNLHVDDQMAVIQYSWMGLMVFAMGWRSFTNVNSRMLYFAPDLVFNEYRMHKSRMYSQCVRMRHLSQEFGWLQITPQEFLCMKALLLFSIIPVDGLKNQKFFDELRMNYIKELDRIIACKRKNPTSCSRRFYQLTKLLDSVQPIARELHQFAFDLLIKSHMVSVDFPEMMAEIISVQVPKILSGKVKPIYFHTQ
Type: cell-based
Procedure: Assessment of AR Proteolytic Activity
Androgen receptor (AR) proteolytic activity of the compound according to the present invention was evaluated as follows: Specifically, 5.5×10^5 LNCap cells were injected into each well of a 6-well plate. […] After 24 hours of treatment, cells were collected and lysed using RIPA Lysis buffer (50 mM Tris-HCl, pH7.5, 150 mM NaCl, 1% Triton X-100, 2 mM EDTA, 0.1% SDS, 0.5% sodium deoxycholate and protease inhibitor cocktail) to make cell lysates. Western blotting was performed, and the results were quantified using Image J program.
CC1(C)C(NC(=O)c2ccc(C#CC3CCN(CC4CN(c5ccc6nnn(C7CCC(=O)NC7=O)c(=O)c6c5)C4)CC3)nc2)C(C)(C)C1Oc1ccc(C#N)c(Cl)c1 (stereo not drawn) [Example 184, N-((1r,3r)-3-(3-chloro-4-cyanophenoxy)-2,2,4,4-tetramethylcyclobutyl)-6-((1-((1-(3-(2,6-dioxopiperidin-3-yl)-4-oxo-3,4-dihydrobenzo[d][1,2,3]triazin-6-yl)azetidin-3-yl)methyl)piperidin-4-yl)ethynyl)nicotinamide] was tested, and the “Degradation (1 μM treated in LNCaP, % AR remaining)” value was 11%. In the case of CC1(C)C(NC(=O)c2ccc(C#CCN3CC4(CCN(c5ccc6nnn(C7CCC(=O)NC7=O)c(=O)c6c5)CC4)C3)nc2)C(C)(C)C1Oc1ccc(C#N)c(Cl)c1 (stereo not drawn) [Example 180, N-((1r,3r)-3-(3-chloro-4-cyanophenoxy)-2,2,4,4-tetramethylcyclobutyl)-6-(3-(7-(3-(2,6-dioxopiperidin-3-yl)-4-oxo-3,4-dihydrobenzo[d][1,2,3]triazin-6-yl)-2,7-diazaspiro[3.5]nonan-2-yl)prop-1-yn-1-yl)nicotinamide], the “Degradation (1 μM treated in LNCaP, % AR remaining)” value is reported as 18%. CC1(C)C(NC(=O)c2ccc(C#CC3CCN(CC4CCN(c5ccc6nnn(C7CCC(=O)NC7=O)c(=O)c6c5)CC4)CC3)nc2)C(C)(C)C1Oc1ccc(C#N)c(Cl)c1 (stereo not drawn) [Example 196, N-((1r,3r)-3-(3-chloro-4-cyanophenoxy)-2,2,4,4-tetramethylcyclobutyl)-6-((1-((1-(3-(2,6-dioxopiperidin-3-yl)-4-oxo-3,4-dihydrobenzo[d][1,2,3]triazin-6-yl)piperidin-4-yl)methyl)piperidin-4-yl)ethynyl)nicotinamide] was tested, and the “Degradation (1 μM treated in LNCaP, % AR remaining)” value was 4%. With CC1(C)C(NC(=O)c2ccc(N3CC[C@H](CN4CCC5(CC4)CN(c4ccc6c(=O)n(C7CCC(=O)NC7=O)nnc6c4)C5)C3)nc2)C(C)(C)C1Oc1ccc(C#N)c(Cl)c1 (stereo partly drawn) [Example 189, N-((1r,3R)-3-(3-chloro-4-cyanophenoxy)-2,2,4,4-tetramethylcyclobutyl)-6-((3R)-3-((2-(3-(2,6-dioxopiperidin-3-yl)-4-oxo-3,4-dihydrobenzo[d][1,2,3]triazin-7-yl)-2,7-diazaspiro[3.5]nonan-7-yl)methyl)pyrrolidin-1-yl)nicotinamide] the “Degradation (1 μM treated in LNCaP, % AR remaining)” value was 14%. CC1(C)C(NC(=O)c2ccc(C#CCN3CCN(c4ccc5nnn(C6CCC(=O)NC6=O)c(=O)c5c4)CC3)nc2)C(C)(C)C1Oc1ccc(C#N)c(Cl)c1 (stereo not drawn) [Example 178, N-((1r,3r)-3-(3-chloro-4-cyanophenoxy)-2,2,4,4-tetramethylcyclobutyl)-6-(3-(4-(3-(2,6-dioxopiperidin-3-yl)-4-oxo-3,4-dihydrobenzo[d][1,2,3]triazin-6-yl)piperazin-1-yl)prop-1-yn-1-yl)nicotinamide] was tested, and the “Degradation (1 μM treated in LNCaP, % AR remaining)” value was 23%. N#Cc1ccc(O[C@H]2CC[C@@H](NC(=O)c3ccc(N4CCC(CN5CC6(CCN(c7ccc8c(=O)n(C9CCC(=O)NC9=O)nnc8c7)CC6)C5)CC4)nc3)CC2)cc1Cl (stereo partly drawn) [Example 167, N-((1r,4r)-4-(3-chloro-4-cyanophenoxy)cyclohexyl)-6-(4-((7-(3-(2,6-dioxopiperidin-3-yl)-4-oxo-3,4-dihydrobenzo[d][1,2,3]triazin-7-yl)-2,7-diazaspiro[3.5]nonan-2-yl)methyl)piperidin-1-yl)nicotinamide] was tested, and the “Degradation (1 μM treated in LNCaP, % AR remaining)” value was 19%. CC1(C)C(NC(=O)c2ccc(N3CC[C@H](CN4CC5(CCN(c6ccc7nnn(C8CCC(=O)NC8=O)c(=O)c7c6)CC5)C4)C3)nc2)C(C)(C)C1Oc1ccc(C#N)c(Cl)c1 (stereo partly drawn) [Example 186, N-((1r,3R)-3-(3-chloro-4-cyanophenoxy)-2,2,4,4-tetramethylcyclobutyl)-6-((3R)-3-((7-(3-(2,6-dioxopiperidin-3-yl)-4-oxo-3,4-dihydrobenzo[d][1,2,3]triazin-6-yl)-2,7-diazaspiro[3.5]nonan-2-yl)methyl)pyrrolidin-1-yl)nicotinamide] was tested, and the “Degradation (1 μM treated in LNCaP, % AR remaining)” value was 11%. With CC1(C)C(NC(=O)c2ccc(N3CC[C@@H](CN4CC5(CCN(c6ccc7c(=O)n(C8CCC(=O)NC8=O)nnc7c6)CC5)C4)C3)nc2)C(C)(C)C1Oc1ccc(C#N)c(Cl)c1 (stereo partly drawn) [Example 187, N-((1r,3S)-3-(3-chloro-4-cyanophenoxy)-2,2,4,4-tetramethylcyclobutyl)-6-((3S)-3-((7-(3-(2,6-dioxopiperidin-3-yl)-4-oxo-3,4-dihydrobenzo[d][1,2,3]triazin-7-yl)-2,7-diazaspiro[3.5]nonan-2-yl)methyl)pyrrolidin-1-yl)nicotinamide] the “Degradation (1 μM treated in LNCaP, % AR remaining)” value was 27%. CC1(C)C(NC(=O)c2ccc(N3CCN(CCCCCOc4ccc5nnn(C6CCC(=O)NC6=O)c(=O)c5c4)CC3)nc2)C(C)(C)C1Oc1ccc(C#N)c(Cl)c1 (stereo not drawn) [Example 163, N-((1r,3r)-3-(3-chloro-4-cyanophenoxy)-2,2,4,4-tetramethylcyclobutyl)-6-(4-(5-((3-(2,6-dioxopiperidin-3-yl)-4-oxo-3,4-dihydrobenzo[d][1,2,3]triazin-6-yl)oxy)pentyl)piperazin-1-yl)nicotinamide] was tested, and the “Degradation (1 μM treated in LNCaP, % AR remaining)” value was 10%. In the case of CC1(C)C(NC(=O)c2ccc(N3CCC(CN4CC5(CCN(c6ccc7c(=O)n(C8CCC(=O)NC8=O)nnc7c6)CC5)C4)CC3)nc2)C(C)(C)C1Oc1ccc(C#N)c(Cl)c1 (stereo not drawn) [Example 169, N-((1r,3r)-3-(3-chloro-4-cyanophenoxy)-2,2,4,4-tetramethylcyclobutyl)-6-(4-((7-(3-(2,6-dioxopiperidin-3-yl)-4-oxo-3,4-dihydrobenzo[d][1,2,3]triazin-7-yl)-2,7-diazaspiro[3.5]nonan-2-yl)methyl)piperidin-1-yl)nicotinamide], the “Degradation (1 μM treated in LNCaP, % AR remaining)” value is reported as 16%. CC1(C)C(NC(=O)c2ccc(C#CCN3CCN(c4ccc5c(=O)n(C6CCC(=O)NC6=O)nnc5c4)CC3)nc2)C(C)(C)C1Oc1ccc(C#N)c(Cl)c1 (stereo not drawn) [Example 177, N-((1r,3r)-3-(3-chloro-4-cyanophenoxy)-2,2,4,4-tetramethylcyclobutyl)-6-(3-(4-(3-(2,6-dioxopiperidin-3-yl)-4-oxo-3,4-dihydrobenzo[d][1,2,3]triazin-7-yl)piperazin-1-yl)prop-1-yn-1-yl)nicotinamide] was tested, and the “Degradation (1 μM treated in LNCaP, % AR remaining)” value was 56%. With CC1(C)C(NC(=O)c2ccc(N3CCC(CN4CCN(C5CCN(c6ccc7c(=O)n(C8CCC(=O)NC8=O)nnc7c6)CC5)CC4)CC3)nc2)C(C)(C)C1Oc1ccc(C#N)c(Cl)c1 (stereo not drawn) [Example 193, N-((1r,3r)-3-(3-chloro-4-cyanophenoxy)-2,2,4,4-tetramethylcyclobutyl)-6-(4-((4-(1-(3-(2,6-dioxopiperidin-3-yl)-4-oxo-3,4-dihydrobenzo[d][1,2,3]triazin-7-yl)piperidin-4-yl)piperazin-1-yl)methyl)piperidin-1-yl)nicotinamide] the “Degradation (1 μM treated in LNCaP, % AR remaining)” value was 12%. In the case of CC1(C)C(NC(=O)c2ccc(N3CCC4(CC3)CN(CC3CN(c5ccc6c(=O)n(C7CCC(=O)NC7=O)nnc6c5)C3)C4)nc2)C(C)(C)C1Oc1ccc(C#N)c(Cl)c1 (stereo not drawn) [Example 175, N-((1r,3r)-3-(3-chloro-4-cyanophenoxy)-2,2,4,4-tetramethylcyclobutyl)-6-(2-((1-(3-(2,6-dioxopiperidin-3-yl)-4-oxo-3,4-dihydrobenzo[d][1,2,3]triazin-7-yl)azetidin-3-yl)methyl)-2,7-diazaspiro[3.5]nonan-7-yl)nicotinamide], the “Degradation (1 μM treated in LNCaP, % AR remaining)” value is reported as 10%. For N#Cc1ccc(O[C@H]2CC[C@H](NC(=O)c3ccc(N4CCC(CN5CC6(CCN(c7ccc8nnn(C9CCC(=O)NC9=O)c(=O)c8c7)CC6)C5)CC4)nc3)CC2)cc1Cl (stereo partly drawn) [Example 168, N-((1r,4r)-4-(3-chloro-4-cyanophenoxy)cyclohexyl)-6-(4-((7-(3-(2,6-dioxopiperidin-3-yl)-4-oxo-3,4-dihydrobenzo[d][1,2,3]triazin-6-yl)-2,7-diazaspiro[3.5]nonan-2-yl)methyl)piperidin-1-yl)nicotinamide], the “Degradation (1 μM treated in LNCaP, % AR remaining)” value was 10%. In the case of CC1(C)[C@H](NC(=O)c2ccc(N3CCC(CN4CCC5(CC4)CN(c4ccc6c(=O)n(C7CCC(=O)NC7=O)nnc6c4)C5)CC3)nc2)C(C)(C)[C@H]1Oc1ccc(C#N)c(Cl)c1 (stereo partly drawn) [Example 171, N-((1r,3r)-3-(3-chloro-4-cyanophenoxy)-2,2,4,4-tetramethylcyclobutyl)-6-(4-((2-(3-(2,6-dioxopiperidin-3-yl)-4-oxo-3,4-dihydrobenzo[d][1,2,3]triazin-7-yl)-2,7-diazaspiro[3.5]nonan-7-yl)methyl)piperidin-1-yl)nicotinamide], the “Degradation (1 μM treated in LNCaP, % AR remaining)” value is reported as 11%.

Source: patent US20240018123A1, “COMPOUND FOR INHIBITING OR DISINTEGRATING ANDROGEN RECEPTOR, AND PHARMACEUTICAL USE THEREOF” (KOREA RESEARCH INSTITUTE OF CHEMICAL TECHNOLOGY, priority 2020, published 2024)
